How the values were obtained:
anti-T4 Fab fragment = assay: SPR (BIAcore T200) inhibition assay, immobilized T4-AP, affinity and specificity determination; format: binding, mouse; conditions: 2 nM anti-T4 Fab preincubated with analyte, T4-AP on CM5 chip, 2% DMSO-PBSP, triplicates
Procedure: T4-alkaline phosphatase was immobilized to the sensor surface and Kd values were determined by inhibition assay method.
T4-AP and AP (P5931, Sigma-Aldrich, St. Louis, Mo., USA), were diluted to 100 μg/mL concentration in 10 mM sodium acetate pH 4.0 (BR100351, GE Healthcare, Piscataway, N.J., USA). T4-AP and AP were immobilized to preconditioned CM5 chip using EDC/NHS—chemistry following manufacturer's instructions. Concentration of anti-T4 Fab fragment was calculated using theoretical extinction coefficient (ExPASy ProtParam tool, web.expasy.org/protparam) of the anti-T4 Fab fragment and by measuring the A280 with NanoDrop 2000c instrument (Thermo Disher Scientific, Waltham, Mass., USA). […] Flowrate was set to 30 μl/min in all cycle steps.
Preincubated mixtures were injected over the sensor chip surface for seven minutes and dissociated for 30 seconds. […] Data collection point was set to be 10 seconds after the start of dissociation phase. All sample series were run as triplicates, where a single sample series consisted from growing small molecule concentration in the preincubation mixture. Data was reference and blank subtracted. In addition, small differences in DMSO between the samples were compensated using DMSO solvent correction series, as recommended by instrument manufacturer GE Healthcare). Concentrations of free anti-T4 Fab fragments remaining in the preincubated mixtures were calculated by comparing the obtained responses against standard curve of anti-T4 Fab fragment. Affinity constants were calculated using BIAcore T200 Evaluation Software (GE Healthcare, Piscataway, N.J., USA) applying four-parameter logistic function. (See FIGS. 4A and B and Table 1.)

anti-T4 Fab = assay: competitive ELISA, T4-BSA coated wells, 0.25 nM anti-T4 Fab pre-incubated with analyte; format: binding, mouse; conditions: for IC50: by ELISA assay, read-out: relative IC50
Procedure: Microtiter plate wells (Nunc, 436023) were coated with 100 μl of 4 μg/ml T4-BSA (Fitzgerald, 80-IT50) in PBS (15 mM phosphate, 150 mM NaCl, pH 7.3) for one hour at +37° C. with 600 rpm shaking. Wells were then washed three times with 300 μl PBS supplemented with 0.05% (v/v) Tween20 (Sigma-Aldrich, 93773-250G). Wells were blocked with 200 μl of Superblock® (Thermo Fisher Scientific, 37516) for 30 minutes in room temperature with 600 rpm shaking and washed as above. 100 μl of pre-incubated mixtures, containing 0.25 nM anti-T4 Fab and varying concentrations of L-thyroxine (T4) (Sigma-Aldrich, T2376) in PBSP (GE Healthcare, 28-9950-84) supplemented with 1% DMSO (v/v) (Sigma-Aldrich, D5879-100ML), were transferred to wells and incubated for 30 minutes with 600 rpm shaking in room temperature. Each sample had 12 replicates. Wells were washed as above and 100 μl of Goat anti-mouse Kappa-HRP (SoutherBiotech, 1050-05) diluted 1:1000 in Superblock was transferred to wells and incubation was carried out for 30 minutes at 600 rpm shaking in room temperature. Wells were washed as above and 100 μl of TMB Microwell Peroxidase Substrate System (2-C) (SeraCare, 50-76-00) was transferred to wells and enzymatic reaction was carried out for 30 minutes with 600 rpm shaking in room temperature. Reactions were stopped by transferring 100 μl of 1 M H3PO4 to the wells and measured at A450 using Varioskan (Thermo Fisher Scientific). Data was analysed with OriginPro 2017-software.
Assay was performed as in the previous paragraph (under title L-Thyroxine) except instead of T4 (Thyroxine) TIBPA (Tetraiodobisphenol A) was used.
Assay was performed as in the paragraph under title L-Thyroxine except instead of T4 (Thyroxine) TBBPA (Tetrabromobisphenol A) was used.
Assay was performed as in the paragraph under title L-Thyroxine except instead of T4 (Thyroxine) TCBPA (Tetrachlorobisphenol A) was used.
Assay was performed as in the paragraph under title L-Thyroxine except instead of T4 (Thyroxine) BPA (Bisphenol A) was used.

SMILES	KD, anti-T4 Fab (anti-T4 Fab fragment)	competition in competitive ELISA assay (anti-T4 Fab; high concentration (5 μM))	Kd (anti-T4 Fab fragment) [nM]	IC50 (anti-T4 Fab) [nM]
CC(C)(c1ccc(O)cc1)c1ccc(O)cc1 [BPA, Bisphenol A]	no binding	No competition was observed	–	–
N[C@@H](Cc1ccc(Oc2ccc(O)cc2)cc1)C(=O)O [Compound T0]	no binding	–	–	–
CC(C)(c1cc(I)c(O)c(I)c1)c1cc(I)c(O)c(I)c1 [TIBPA, Tetraiodobisphenol A]	–	–	37.3	54
CC(C)(c1cc(Br)c(O)c(Br)c1)c1cc(Br)c(O)c(Br)c1 [TBBPA, Tetrabromobisphenol A]	–	–	69.2	74
N[C@@H](Cc1cc(I)c(Oc2cc(I)c(O)c(I)c2)c(I)c1)C(=O)O [Compound T4, 3,5,3′,5′-tetraiodothyronine]	–	–	0.53	0.54
CC(C)(c1cc(Cl)c(O)c(Cl)c1)c1cc(Cl)c(O)c(Cl)c1 [TCBPA, Tetrachlorobisphenol A]	–	–	558	544

Source: patent publication US11578125B2, “Anti-thyroid hormone (T4) recombinant antibody or antigen binding fragment” (Teknologian tutkimuskeskus VTT Oy, priority 2018, dated 2023)
